# According to ChEMBL document CHEMBL5150034, “Design, synthesis, molecular docking and pharmacological evaluation of novel triazine-based triazole derivatives as potential anticonvulsant agents” (Bioorg Med Chem Lett, 2022):
# Key:
# Mus musculus [1] = assay: Anticonvulsant activity in MES induced mouse model of seizure assessed as protection against seizure at 1 mmol/Kg, ip relative to control; format: functional
# Mus musculus [2] = assay: Anticonvulsant activity in PTZ induced mouse model of seizure assessed as protection against seizure at 1 mmol/Kg, ip relative to control; format: functional
# Mus musculus [3] = assay: Anticonvulsant activity in ip dosed mouse model of seizure; format: functional
# [4] = Toxicity in ip dosed mouse; format: organism-based; conditions: in vivo
# [5] = Therapeutic index, ratio of LD50 for toxicity in ip dosed mouse to ED50 for anticonvulsant activity in ip dosed mouse model of seizure; format: organism-based; conditions: in vivo, read-out: TI
# [6] = Protective index, ratio of TD50 for toxicity in ip dosed mouse to ED50 for anticonvulsant activity in ip dosed mouse model of seizure; format: organism-based; conditions: in vivo, read-out: Ratio TD50/ED50
SMILES,Activity (Mus musculus [1]),Activity (Mus musculus [2]),ED50 (Mus musculus [3]),TD50 [4],selectivity ratio [5],selectivity ratio [6]
CC(=O)c1nnn(-c2nc(Cl)nc(Cl)n2)c1NCc1cc(F)c(F)c(F)c1,67%,75%,,,,
CC(=O)c1nnn(-c2nc(Cl)nc(Cl)n2)c1NCc1ccccc1,33%,48%,,,,
CC(=O)c1nnn(-c2nc(Cl)nc(Cl)n2)c1NCc1ccc(F)cc1,100%,100%,0.34 mmol/kg,0.89 mmol/kg,3.35,2.61
CC(=O)c1nnn(-c2nc(Cl)nc(Cl)n2)c1NCc1ccc(Cl)cc1,100%,100%,0.39 mmol/kg,0.93 mmol/kg,2.76,2.38
CC(=O)c1nnn(-c2nc(Cl)nc(Cl)n2)c1NCc1cc(F)cc(F)c1,83%,100%,0.46 mmol/kg,0.97 mmol/kg,2.21,2.1
CC(=O)c1nnn(-c2nc(Cl)nc(Cl)n2)c1NCc1ccc([N+](=O)[O-])cc1,100%,100%,0.27 mmol/kg,0.83 mmol/kg,4.14,3.07
CC(=O)c1nnn(-c2nc(Cl)nc(Cl)n2)c1NCc1ccc(C(F)(F)F)cc1,100%,100%,0.21 mmol/kg,0.79 mmol/kg,5.61,3.76
CC(=O)c1nnn(-c2nc(Cl)nc(Cl)n2)c1NCc1ccc(C)cc1,25%,39%,,,,
COc1ccc(CNc2c(C(C)=O)nnn2-c2nc(Cl)nc(Cl)n2)cc1,10%,25%,,,,
CC(=O)c1nnn(-c2nc(Cl)nc(Cl)n2)c1NCc1ccc(O)cc1,18%,33%,,,,
Cc1ccccc1-n1c(C)nc2ccccc2c1=O [METHAQUALONE],100%,100%,1.46 mmol/kg,1.64 mmol/kg,1.4,1.12
CCCC(CCC)C(=O)O [VALPROIC ACID],100%,100%,4.61 mmol/kg,9.63 mmol/kg,2.59,2.08
